Converted amounts (≈) assume the structure as drawn.
Legend:
[1] = Absorption and excretion of 14C-labelled compounds; type: in vivo, rats; conditions: for dose excreted in expiration: within 24 hours
Procedure: The carbon atom at the 2-position of the chloroethyl group (i.e. ClCH2 CH2 -) of 6DCNU and 6MCαG was labelled with radioactive ^14 C, and the absorption and excretion of these compounds were tested using rats.

[2] = Effect on respiration, blood pressure, heart rate and electrocardiogram; type: in vivo, Beagle dogs; conditions: dog, in vivo, iv; injected into brachial veins, anesthetized Beagle dogs; read-out: maximum dosage not effected on respiration, blood pressure, heart rate and electrocardiogram
Procedure: Beagle dogs of both sexes weighing about 10 kg were anesthetized with pentobarbital sodium (30 mg/kg, i.v.), and immobilized in the supine position. Test compounds dissolved in physiological saline solution were injected into the brachial veins of the animals and the arteries at cannulated positions were treated with heparin sodium as anticoagulant.
The respiration rate of each animal was estimated with a respirometer (Nihonkohden, RP-3) through a tracheal cannula, the blood pressure with an electro-haemodynamometer (Nihonkohden, MP-4T) attached surgically to the femoral artery, and the heart rate with a pulse-rate tachometer (Nihonkohden, RT-2) through the trigger pulse of the blood pressure.

[3] = known compounds, generally seen; cited from earlier work
leukemia L-1210 = test: Antitumor activity against leukemia L-1210 implanted in BDF1 mice (ILS, 60 days survivors); type: in vivo
Text: Test compounds were given to BDF1 mice 24 hrs after implantation of 10^6 cells of leukemia L-1210 in each animal, through single intraperitoneal administration, intraperitoneal administration for 5 successive days, single oral administration or oral administration for 5 successive days, whereupon the increase in life span (referred to as "ILS") and number of 60 days survivors of test animals were estimated, said test of antitumor activity being that according to the method of the National Cancer Center, Tokyo [A. Hoshi et al: Farmashia, 9 (1973), 464]. In the tests, the compounds were dissolved in physiological saline solution just before administration.
^a i.p.: intraperitoneal administration p.o: oral administration
D1 : single administration D1~5 : administration for 5
^b percentage calculated from mean survival time over control
^c survivors/six animals

Acute toxicity (LD50) = type: in vivo, male Wister rats; conditions: rat, in vivo, after 1 week
Procedure: Test compounds were dissolved in physiological saline solution just before their dosage and administered to male Wister rats, intraperitoneally, intravenously and orally. After 1 week, the LD50 of each compound was calculated from the mortality of the test animals by the Lichfield-Wilcoxon Method.
i.v.: intravenous administration

[4] = Solubility in water at 25° C.; type: physicochemical; conditions: amount soluble in 1 ml water at 25° C.
[5] = Diabetogenic activity (blood glucose concentration after intravenous administration); type: in vivo, male Wister rats
Procedure: 40-96 mg/kg of the test compounds were administered intravenously to starved male Wister rats weighing 240-260 g each, and the blood glucose concentrations of the test animals were estimated by the glucose exidase method [L. L. Saloman et al: Anal. Chem., 31 (1959), 453], in which test the compounds were dissolved in physiological saline solution just before administration. […]

Compound: O=NN(C[14CH2]Cl)C(=O)NC[C@H]1OC(O)[C@H](O)[C@@H](O)[C@@H]1O (stereo partly drawn) [6DCNU-^14 C]
- dose excreted in urine ([1]; within 12 hours after the dose): 65-70%
- dose excreted in expiration [1]: 3-5%
- dose excreted in faeces ([1]; within 72 hours): 10-15%
- dose excreted in urine ([1]; within 72 hours after the dose): 75-80%

Compound: CO[C@H]1O[C@H](CNC(=O)N(C[14CH2]Cl)N=O)[C@@H](O)[C@H](O)[C@H]1O [6MCαG-^14 C]
- dose excreted in urine ([1]; within 12 hours after the dose): 50-60%
- dose excreted in expiration [1]: 3-4%
- dose excreted in faeces ([1]; within 96 hours): 5-6%
- dose excreted in urine ([1]; within 96 hours after the dose): 80-90%

Compound: O=NN(CCCl)C(=O)N[C@H]1C(O)O[C@H](CO)[C@@H](O)[C@@H]1O (stereo partly drawn) [DCNU, 1-(2-chloroethyl)-3-(D-glucopyranos-2-yl)-1-nitrosourea]
- NOAEL [2]: 20 mg/kg
- diabetogenic activity, decreasing order [3]: SZ>DCNU>GANU> 2MCαG≈6MCαG
- ILS (leukemia L-1210; 1.6 mg/kg/day, i.p. D1~5): > 143%
- Survivors (60 days) (leukemia L-1210; 1.6 mg/kg/day, i.p. D1~5): 1/6
- ILS (leukemia L-1210; 1.6 mg/kg/day, p.o. D1~5): -10%
- ILS (leukemia L-1210; 3.2 mg/kg/day, i.p. D1~5): > 407%
- Survivors (60 days) (leukemia L-1210; 3.2 mg/kg/day, i.p. D1~5): 3/6
- ILS (leukemia L-1210; 3.2 mg/kg/day, p.o. D1~5): 6%
- ILS (leukemia L-1210; 4.5 mg/kg/day, i.p. D1~5): > 406%
- Survivors (60 days) (leukemia L-1210; 4.5 mg/kg/day, i.p. D1~5): 3/6
- ILS (leukemia L-1210; 6.3 mg/kg/day, i.p. D1): > 265%
- Survivors (60 days) (leukemia L-1210; 6.3 mg/kg/day, i.p. D1): 3/6
- ILS (leukemia L-1210; 6.3 mg/kg/day, i.p. D1~5): > 622%
- Survivors (60 days) (leukemia L-1210; 6.3 mg/kg/day, i.p. D1~5): 5/6
- ILS (leukemia L-1210; 6.3 mg/kg/day, p.o. D1~5): 13%
- ILS (leukemia L-1210; 9.0 mg/kg/day, i.p. D1~5): > 153%
- Survivors (60 days) (leukemia L-1210; 9.0 mg/kg/day, i.p. D1~5): 1/6
- ILS (leukemia L-1210; 12.5 mg/kg/day, i.p. D1): > 418%
- Survivors (60 days) (leukemia L-1210; 12.5 mg/kg/day, i.p. D1): 4/6
- ILS (leukemia L-1210; 12.5 mg/kg/day, p.o. D1~5): 13%
- ILS (leukemia L-1210; 25.0 mg/kg/day, i.p. D1): > 315%
- Survivors (60 days) (leukemia L-1210; 25.0 mg/kg/day, i.p. D1): 3/6
- ILS (leukemia L-1210; 25.0 mg/kg/day, p.o. D1~5): 13%
- ILS (leukemia L-1210; 50.0 mg/kg/day, i.p. D1): -10%
- ILS (leukemia L-1210; 50.0 mg/kg/day, p.o. D1~5): 15%
- ILS (leukemia L-1210; 100.0 mg/kg/day, p.o. D1~5): 18%
- ILS (leukemia L-1210; 200.0 mg/kg/day, p.o. D1~5): -23%
- antitumor activity in oral administration, in words (leukemia L-1210; oral administration): no antitumor activity in oral administration
- LD50 at 168 h (Acute toxicity (LD50); ip): 44 mg/kg
- LD50 at 168 h (Acute toxicity (LD50); po): 1150 mg/kg
- solubility [4]: 40 mg/mL (≈ 128 mM)
- Blood Glucose Concentration ([5]; 40 mg/kg i.v., 0 hr after treatment): 67.5 mg/dL
- Blood Glucose Concentration ([5]; 40 mg/kg i.v., 2 hr after treatment): 87.2 mg/dL
- Blood Glucose Concentration ([5]; 40 mg/kg i.v., 4 hr after treatment): 74.6 mg/dL
- Blood Glucose Concentration ([5]; 40 mg/kg i.v., 7 hr after treatment): 85.3 mg/dL
- Blood Glucose Concentration ([5]; 40 mg/kg i.v., 10 hr after treatment): 110.2 mg/dL
- Blood Glucose Concentration ([5]; 40 mg/kg i.v., 24 hr after treatment): 142.2 mg/dL
- Blood Glucose Concentration ([5]; 40 mg/kg i.v., 48 hr after treatment): 229.4 mg/dL
- Blood Glucose Concentration ([5]; 60 mg/kg i.v., 0 hr after treatment): 68.2 mg/dL
- Blood Glucose Concentration ([5]; 60 mg/kg i.v., 2 hr after treatment): 88.4 mg/dL
- Blood Glucose Concentration ([5]; 60 mg/kg i.v., 4 hr after treatment): 72.4 mg/dL
- Blood Glucose Concentration ([5]; 60 mg/kg i.v., 7 hr after treatment): 92.1 mg/dL
- Blood Glucose Concentration ([5]; 60 mg/kg i.v., 10 hr after treatment): 115.7 mg/dL
- Blood Glucose Concentration ([5]; 60 mg/kg i.v., 24 hr after treatment): 162.6 mg/dL
- Blood Glucose Concentration ([5]; 60 mg/kg i.v., 48 hr after treatment): 242.3 mg/dL
- Blood Glucose Concentration ([5]; 80 mg/kg i.v., 0 hr after treatment): 70.5 mg/dL
- Blood Glucose Concentration ([5]; 80 mg/kg i.v., 2 hr after treatment): 90.3 mg/dL
- Blood Glucose Concentration ([5]; 80 mg/kg i.v., 4 hr after treatment): 68.6 mg/dL
- Blood Glucose Concentration ([5]; 80 mg/kg i.v., 7 hr after treatment): 93.7 mg/dL
- Blood Glucose Concentration ([5]; 80 mg/kg i.v., 10 hr after treatment): 123.5 mg/dL
- Blood Glucose Concentration ([5]; 80 mg/kg i.v., 24 hr after treatment): 178.7 mg/dL
- Blood Glucose Concentration ([5]; 80 mg/kg i.v., 48 hr after treatment): 264.8 mg/dL
